In patent publication US20250367166A1, “NEXT GENERATION DIPROVOCIMS THAT ACTIVATE THE INNATE AND ADAPTIVE IMMUNE RESPONSE” (The Scripps Research Institute, priority 2022, published 2025):

Key:
[1] = molecular target: TLR1/TLR2 (Mus musculus, UniProt Q9EPQ1+Q9QUN7); test: TNF-α release from thioglycolate-elicited mouse peritoneal macrophages (ELISA); conditions: for Emax: 4 h, read-out: Efficacy (magnitude) of response versus diprovocim-1 (100%), mouse macrophages; for EC50: read-out: EC50 (nM) (mouse): EC50 TNF-α release from mouse macrophages, Table 5
Chain of TLR1/TLR2 (Mus musculus, UniProt Q9EPQ1+Q9QUN7) (Q9EPQ1 26-795): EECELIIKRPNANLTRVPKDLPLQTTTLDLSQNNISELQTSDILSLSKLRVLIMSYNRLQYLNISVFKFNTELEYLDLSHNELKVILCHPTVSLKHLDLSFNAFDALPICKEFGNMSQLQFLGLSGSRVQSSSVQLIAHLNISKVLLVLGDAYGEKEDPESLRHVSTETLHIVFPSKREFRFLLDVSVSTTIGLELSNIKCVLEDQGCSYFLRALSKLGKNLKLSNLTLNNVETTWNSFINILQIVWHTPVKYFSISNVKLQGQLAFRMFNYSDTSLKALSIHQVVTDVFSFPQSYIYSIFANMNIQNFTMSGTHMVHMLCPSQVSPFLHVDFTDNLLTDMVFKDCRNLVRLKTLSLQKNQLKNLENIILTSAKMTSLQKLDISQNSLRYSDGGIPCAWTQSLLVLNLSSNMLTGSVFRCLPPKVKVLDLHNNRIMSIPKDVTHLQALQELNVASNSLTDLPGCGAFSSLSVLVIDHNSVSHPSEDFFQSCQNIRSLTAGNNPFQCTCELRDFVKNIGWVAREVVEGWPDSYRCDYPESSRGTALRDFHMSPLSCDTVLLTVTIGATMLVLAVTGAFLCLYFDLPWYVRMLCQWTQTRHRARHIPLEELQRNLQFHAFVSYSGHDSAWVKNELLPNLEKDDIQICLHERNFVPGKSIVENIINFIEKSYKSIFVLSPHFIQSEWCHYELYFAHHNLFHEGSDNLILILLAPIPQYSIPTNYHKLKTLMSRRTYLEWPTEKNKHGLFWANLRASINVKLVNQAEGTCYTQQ
Chain of TLR1/TLR2 (Mus musculus, UniProt Q9EPQ1+Q9QUN7) (Q9QUN7 25-784): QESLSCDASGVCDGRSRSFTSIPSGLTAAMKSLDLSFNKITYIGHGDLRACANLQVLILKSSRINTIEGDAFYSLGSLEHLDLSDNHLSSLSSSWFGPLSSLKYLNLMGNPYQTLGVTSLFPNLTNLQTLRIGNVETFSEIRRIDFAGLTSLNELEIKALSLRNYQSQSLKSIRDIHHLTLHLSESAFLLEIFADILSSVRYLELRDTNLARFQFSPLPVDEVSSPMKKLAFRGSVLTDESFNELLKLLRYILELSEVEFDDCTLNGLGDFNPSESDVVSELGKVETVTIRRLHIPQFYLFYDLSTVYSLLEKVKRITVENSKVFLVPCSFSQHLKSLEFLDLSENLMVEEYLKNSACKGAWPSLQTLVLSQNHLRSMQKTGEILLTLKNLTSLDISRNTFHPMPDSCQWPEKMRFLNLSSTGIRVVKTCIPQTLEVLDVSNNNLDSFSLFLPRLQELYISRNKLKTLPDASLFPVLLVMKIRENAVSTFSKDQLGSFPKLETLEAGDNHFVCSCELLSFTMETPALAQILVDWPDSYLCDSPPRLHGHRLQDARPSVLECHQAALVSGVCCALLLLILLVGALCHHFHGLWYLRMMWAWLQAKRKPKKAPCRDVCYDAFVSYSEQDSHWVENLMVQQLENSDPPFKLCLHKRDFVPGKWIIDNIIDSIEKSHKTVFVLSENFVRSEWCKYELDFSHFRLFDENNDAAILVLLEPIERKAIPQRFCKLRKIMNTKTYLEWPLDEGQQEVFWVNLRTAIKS

[2] = molecular target: TLR1/TLR2 (Homo sapiens, UniProt O60603+Q15399); test: TNF-α release from PMA-differentiated human THP-1 cells (ELISA); conditions: for Emax: THP-1, 4 h, read-out: Efficacy (magnitude) of response versus diprovocim-1 (100%), THP-1; for EC50: read-out: EC50 (nM) (THP-1): EC50 TNF-α release from human THP-1 cells, Table 5;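 as to all read-outs here: cells exposed to graded compound concentrations for 4 h, TNF-α quantified in supernatant, LPS as positive and DMSO as negative control, values are duplicate means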
Chain of TLR1/TLR2 (Homo sapiens, UniProt O60603+Q15399) (Q15399 25-786): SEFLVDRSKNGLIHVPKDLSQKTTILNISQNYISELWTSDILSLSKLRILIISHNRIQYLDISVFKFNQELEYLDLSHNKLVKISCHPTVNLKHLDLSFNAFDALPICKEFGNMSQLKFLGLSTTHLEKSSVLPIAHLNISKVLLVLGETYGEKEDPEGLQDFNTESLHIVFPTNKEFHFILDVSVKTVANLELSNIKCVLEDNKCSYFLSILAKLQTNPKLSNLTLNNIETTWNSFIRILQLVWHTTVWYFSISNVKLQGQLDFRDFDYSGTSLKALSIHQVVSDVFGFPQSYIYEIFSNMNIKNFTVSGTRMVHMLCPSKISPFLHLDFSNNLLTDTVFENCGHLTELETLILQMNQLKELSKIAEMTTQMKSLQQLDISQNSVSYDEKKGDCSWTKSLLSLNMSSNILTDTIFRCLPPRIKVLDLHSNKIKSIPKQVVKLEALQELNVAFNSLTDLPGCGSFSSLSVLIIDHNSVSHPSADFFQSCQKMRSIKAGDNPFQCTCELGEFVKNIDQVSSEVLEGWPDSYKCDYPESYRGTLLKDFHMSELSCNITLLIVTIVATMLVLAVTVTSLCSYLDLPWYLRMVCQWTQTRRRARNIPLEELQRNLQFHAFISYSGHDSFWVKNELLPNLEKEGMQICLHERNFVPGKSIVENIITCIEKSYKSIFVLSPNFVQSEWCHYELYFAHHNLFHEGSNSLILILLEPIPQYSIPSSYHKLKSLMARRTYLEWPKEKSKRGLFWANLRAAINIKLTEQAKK
Chain of TLR1/TLR2 (Homo sapiens, UniProt O60603+Q15399) (O60603 21-784): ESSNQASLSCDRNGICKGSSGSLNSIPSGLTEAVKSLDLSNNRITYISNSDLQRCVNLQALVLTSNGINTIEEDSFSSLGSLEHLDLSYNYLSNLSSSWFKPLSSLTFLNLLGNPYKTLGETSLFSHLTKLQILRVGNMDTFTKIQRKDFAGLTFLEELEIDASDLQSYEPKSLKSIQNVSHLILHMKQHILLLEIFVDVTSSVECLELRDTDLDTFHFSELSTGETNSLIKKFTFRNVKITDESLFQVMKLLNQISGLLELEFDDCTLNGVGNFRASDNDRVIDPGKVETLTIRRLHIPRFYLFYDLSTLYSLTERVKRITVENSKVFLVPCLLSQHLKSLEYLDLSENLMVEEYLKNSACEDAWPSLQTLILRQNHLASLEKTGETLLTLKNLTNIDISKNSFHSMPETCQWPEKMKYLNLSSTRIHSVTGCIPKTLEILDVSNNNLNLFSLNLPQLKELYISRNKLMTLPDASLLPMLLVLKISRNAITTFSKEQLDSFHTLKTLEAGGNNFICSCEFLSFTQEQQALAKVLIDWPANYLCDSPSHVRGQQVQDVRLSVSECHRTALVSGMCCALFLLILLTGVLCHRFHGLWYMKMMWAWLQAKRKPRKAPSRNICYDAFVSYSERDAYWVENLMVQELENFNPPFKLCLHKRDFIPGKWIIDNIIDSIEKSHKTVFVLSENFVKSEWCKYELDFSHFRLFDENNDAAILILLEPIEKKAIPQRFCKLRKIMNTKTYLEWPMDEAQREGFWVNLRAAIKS
Method: THP-1 (American Type Culture Collection) cells, a human monocytic leukemia cell line, were differentiated by treatment with 100 nM PMA (Sigma) in Roswell Park Memorial Institute (RPMI) cell culture medium [RPMI containing 10% vol/vol FBS (Gemini Bio Products), 1% penicillin and streptomycin (Life Technologies)] for 24 h. After that, the cells were washed with PBS and cultured in fresh RPMI cell culture medium for 24 h before use in studies. PMA-differentiated THP-1 cells were seeded onto 96-well plates at 0.5×10^5 cells per well and treated with systematically varied concentrations of the candidate compounds (dissolved in DMSO, and the final assay DMSO concentration (0.1%) was kept constant in all experiments) for 4 h. Ultra-pure LPS (dissolved in H2O, Enzo Life Sciences) was assessed alongside the compounds as a positive control and DMSO treated control was used as a negative control. Human TNF-α in the supernatants was measured by ELISA (eBioscience). This assay was used for establishing dose-response curves and measured EC50's. EC50's were calculated by Graphpad Prism. All data is the mean of duplicates and SD is within +10% of mean.

| Structure (SMILES) | Emax [1] | EC50 [1] | Emax [2] | EC50 [2] |
| --- | --- | --- | --- | --- |
| CC(C)(C)OC(=O)N[C@@H](COCc1ccccc1)C(=O)OCCCCCCCCCCCCNC(=O)[C@@H]1CN(C(=O)c2ccc(C(=O)N3C[C@@H](C(=O)N[C@H]4C[C@@H]4c4ccccc4)[C@H](C(=O)N[C@H]4C[C@@H]4c4ccccc4)C3)cc2)C[C@H]1C(=O)N[C@H]1C[C@@H]1c1ccccc1 [Compound 64, (S)-12-((3S,4S)-1-(4-((3S,4S)-3,4-Bis(((1S,2R)-2-phenylcyclopropyl)carbamoyl)pyrrolidine-1-carbonyl)-benzoyl)-4-(((1S,2R)-2-phenylcyclopropyl)carbamoyl)-pyrrolidine-3-carboxamido)dodecyl 3-(benzyloxy)-2-((tert-butoxycarbonyl)amino)propanoate] | 370% | 30 nM | 100% | 0.15 nM |
| CC(C)(C)OC(=O)N[C@@H](CSCc1ccccc1)C(=O)OCCCCCCCCCCCCNC(=O)[C@@H]1CN(C(=O)c2ccc(C(=O)N3C[C@@H](C(=O)N[C@H]4C[C@@H]4c4ccccc4)[C@H](C(=O)N[C@H]4C[C@@H]4c4ccccc4)C3)cc2)C[C@H]1C(=O)N[C@H]1C[C@@H]1c1ccccc1 [Compound 65, (R)-12-((3S,4S)-1-(4-((3S,4S)-3,4-Bis(((1S,2R)-2-phenylcyclopropyl)carbamoyl)pyrrolidine-1-carbonyl)-benzoyl)-4-(((1S,2R)-2-phenylcyclopropyl)carbamoyl)-pyrrolidine-3-carboxamido)dodecyl 3-(benzylthio)-2-((tert-butoxycarbonyl)amino)propanoate] | 200% | 360 nM | 100% | 18 nM |
| CC(C)(C)OC(=O)N[C@@H](CCC(=O)OCc1ccccc1)C(=O)OCCCCCCCCCCCCNC(=O)[C@@H]1CN(C(=O)c2ccc(C(=O)N3C[C@@H](C(=O)N[C@H]4C[C@@H]4c4ccccc4)[C@H](C(=O)N[C@H]4C[C@@H]4c4ccccc4)C3)cc2)C[C@H]1C(=O)N[C@H]1C[C@@H]1c1ccccc1 [Compound 66, (S)-5-Benzyl 1-(12-((3S,4S)-1-(4-((3S,4S)-3,4-bis-(((1S,2R)-2-phenylcyclopropyl)carbamoyl)-pyrrolidine-1-carbonyl)-benzoyl)-4-(((1S,2R)-2-phenylcyclopropyl)-carbamoyl)pyrrolidine-3-carboxamido)dodecyl) 2-((tert-butoxycarbonyl)-amino)pentanedioate] | 210% | 450 nM | 100% | 39 nM |
| CSCC[C@H](NC(=O)OC(C)(C)C)C(=O)OCCCCCCCCCCCCNC(=O)[C@@H]1CN(C(=O)c2ccc(C(=O)N3C[C@@H](C(=O)N[C@H]4C[C@@H]4c4ccccc4)[C@H](C(=O)N[C@H]4C[C@@H]4c4ccccc4)C3)cc2)C[C@H]1C(=O)N[C@H]1C[C@@H]1c1ccccc1 [Compound 67, (S)-12-((3S,4S)-1-(4-((3S,4S)-3,4-Bis(((1S,2R)-2-phenylcyclopropyl)carbamoyl)pyrrolidine-1-carbonyl)-benzoyl)-4-(((1S,2R)-2-phenylcyclopropyl)carbamoyl)-pyrrolidine-3-carboxamido)-dodecyl 2-((tert-butoxy-carbonyl)amino)-4-(methylthio)butanoate] | 150% | 44 nM | 100% | 2.8 nM |
| Cc1ccc(S(=O)(=O)n2cnc(C[C@H](NC(=O)OC(C)(C)C)C(=O)OCCCCCCCCCCCCNC(=O)[C@@H]3CN(C(=O)c4ccc(C(=O)N5C[C@@H](C(=O)N[C@H]6C[C@@H]6c6ccccc6)[C@H](C(=O)N[C@H]6C[C@@H]6c6ccccc6)C5)cc4)C[C@H]3C(=O)N[C@H]3C[C@@H]3c3ccccc3)c2)cc1 [Compound 68, (S)-12-((3S,4S)-1-(4-((3S,4S)-3,4-Bis(((1S,2R)-2-phenylcyclopropyl)carbamoyl)pyrrolidine-1-carbonyl)benzoyl)-4-(((1S,2R)-2-phenylcyclopropyl)carbamoyl)pyrrolidine-3-carboxamido)-dodecyl 2-((tert-butoxy-carbonyl)amino)-3-(1-tosyl-1H-imidazol-4-yl)propanoate] | 110% | 35 nM | 90% | 17 nM |
| CC(C)(C)OC(=O)N[C@@H](CCCCNC(=O)OCC1c2ccccc2-c2ccccc21)C(=O)OCCCCCCCCCCCCNC(=O)[C@@H]1CN(C(=O)c2ccc(C(=O)N3C[C@@H](C(=O)N[C@H]4C[C@@H]4c4ccccc4)[C@H](C(=O)N[C@H]4C[C@@H]4c4ccccc4)C3)cc2)C[C@H]1C(=O)N[C@H]1C[C@@H]1c1ccccc1 [Compound 69, (S)-12-((3S,4S)-1-(4-((3S,4S)-3,4-Bis(((1S,2R)-2-phenylcyclopropyl)carbamoyl)pyrrolidine-1-carbonyl)-benzoyl)-4-(((1S,2R)-2-phenylcyclopropyl)carbamoyl)-pyrrolidine-3-carboxamido)-dodecyl 6-((((9H-fluoren-9-yl)methoxy)-carbonyl)amino)-2-((tert-butoxy-carbonyl)amino)-hexanoate] | 200% | 1150 nM | 100% | 280 nM |
| CN(CC(=O)OCCCCCCCCCCCCNC(=O)[C@@H]1CN(C(=O)c2ccc(C(=O)N3C[C@@H](C(=O)N[C@H]4C[C@@H]4c4ccccc4)[C@H](C(=O)N[C@H]4C[C@@H]4c4ccccc4)C3)cc2)C[C@H]1C(=O)N[C@H]1C[C@@H]1c1ccccc1)C(=O)OC(C)(C)C [Compound 70, 12-((3S,4S)-1-(4-((3S,4S)-3,4-Bis(((1S,2R)-2-phenyl-cyclopropyl)carbamoyl)pyrrolidine-1-carbonyl)-benzoyl)-4-(((1S,2R)-2-phenylcyclopropyl)carbamoyl)-pyrrolidine-3-carboxamido)-dodecyl 2-((tert-butoxycarbonyl)(methyl)amino)acetate] | 110% | 17 nM | 100% | 1.7 nM |
| CC(C)(C)OC(=O)NNC(=O)OCCCCCCCCCCCCNC(=O)[C@@H]1CN(C(=O)c2ccc(C(=O)N3C[C@@H](C(=O)N[C@H]4C[C@@H]4c4ccccc4)[C@H](C(=O)N[C@H]4C[C@@H]4c4ccccc4)C3)cc2)C[C@H]1C(=O)N[C@H]1C[C@@H]1c1ccccc1 [Compound 71, 1-(12-((3S,4S)-1-(4-((3S,4S)-3,4-Bis(((1S,2R)-2-phenylcyclopropyl)carbamoyl)pyrrolidine-1-carbonyl)-benzoyl)-4-(((1S,2R)-2-phenylcyclopropyl)carbamoyl)-pyrrolidine-3-carboxamido)-dodecyl) 2-tert-butyl hydrazine-1,2-dicarboxylate] | 220% | 25 nM | 100% | 5 nM |
| CC(C)(C)OC(=O)NCC(=O)NCC(=O)OCCCCCCCCCCCCNC(=O)[C@@H]1CN(C(=O)c2ccc(C(=O)N3C[C@@H](C(=O)N[C@H]4C[C@@H]4c4ccccc4)[C@H](C(=O)N[C@H]4C[C@@H]4c4ccccc4)C3)cc2)C[C@H]1C(=O)N[C@H]1C[C@@H]1c1ccccc1 [Compound 72, 12-((3S,4S)-1-(4-((3S,4S)-3,4-Bis(((1S,2R)-2-phenyl-cyclopropyl)carbamoyl)pyrrolidine-1-carbonyl)benzoyl)-4-(((1S,2R)-2-phenylcyclopropyl)carbamoyl)pyrrolidine-3-carboxamido)-dodecyl 2-(2-((tert-butoxycarbonyl)amino)acetamido)acetate] | 110% | 2.5 nM | 110% | 0.52 nM |
